The source of these data is US20090123545A1, “Rapid Onset and Short Term Modafinil Compositions and Methods of Use Thereof” (priority 2005, published 2009).

Structures are written as SMILES. Values joined by “and” are separate entries in the source; they are usually repeats but may differ in a detail not shown here. Identical values can stand only once. “Also recorded” adds a separate entry of the source. Like-named read-outs stand apart in the source and are kept apart here.

For one data set, the system named is extracellular dopamine. To be noted: in vivo; cited from earlier work.
The conditions of data set [1]: cited from earlier work.
A further data set deals with dopamine reuptake pump (Homo sapiens, UniProt Q01959). To be noted: in vitro studies; cited from earlier work.
Sequence of dopamine reuptake pump (Q01959 whole entry): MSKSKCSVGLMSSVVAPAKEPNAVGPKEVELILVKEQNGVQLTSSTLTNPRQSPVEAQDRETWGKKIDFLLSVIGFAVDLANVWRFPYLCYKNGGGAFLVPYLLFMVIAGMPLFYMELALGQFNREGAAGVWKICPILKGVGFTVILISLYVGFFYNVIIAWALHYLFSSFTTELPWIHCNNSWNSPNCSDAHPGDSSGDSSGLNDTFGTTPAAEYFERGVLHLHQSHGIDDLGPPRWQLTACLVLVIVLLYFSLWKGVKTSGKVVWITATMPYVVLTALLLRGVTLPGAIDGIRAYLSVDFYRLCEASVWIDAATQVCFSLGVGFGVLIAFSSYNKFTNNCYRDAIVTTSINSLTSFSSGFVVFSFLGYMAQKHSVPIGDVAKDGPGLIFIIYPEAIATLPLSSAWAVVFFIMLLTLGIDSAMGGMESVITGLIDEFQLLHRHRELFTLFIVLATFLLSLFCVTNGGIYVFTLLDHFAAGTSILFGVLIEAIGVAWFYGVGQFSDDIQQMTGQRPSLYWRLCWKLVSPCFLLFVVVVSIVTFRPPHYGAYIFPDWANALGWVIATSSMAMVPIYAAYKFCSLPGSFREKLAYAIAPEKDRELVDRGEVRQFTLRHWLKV
The test system of a further data set is normal human volunteer. Briefly: Double blind study of sub-lingual d-modafinil composition in a normal human volunteer. The format is in vivo. How it is done:
The test subject was given three vials: one vial containing the base formulation (as in Example 1) to test the taste and delivery means, and two coded vials. One of the coded vials contained 100 mg of d-modafinil formulation, and the second coded vial contained placebo (an equivalent amount of formulation).
The subject was instructed to place the contents of the test formulation under the tongue, to allow the formulation to dissolve over two minutes, and to rinse any residual material with some water.

Another data set relates to mice. To be noted: cited from earlier work.
For another data set, the system named is normal human volunteers. Description: Double blind crossover study of sub-lingual d-modafinil in normal human volunteers (VAS, difficulty to fall asleep). To be noted: 200 mg sublingual, one hour before bedtime. Also on record: key to Visual Analog Scale (0 to 3), difficulty to fall asleep: 0: fell asleep as usual; 1: slight, noticeable change; 2: noticeable change; 3: extreme change (kept awake most of night). The format is in vivo. How it is done: Two subjects received a set of coded vials containing either 200 mg of d-modafinil formulated according to Example 1 or an equivalent placebo formulation.
The subjects were given the following instructions:
Start testing at approximately the same time every evening, one hour before bedtime.
Randomly select one of the coded vials each day.
Open the vials and place the powder under your tongue.
Allow the powder to dissolve slowly for approximately 1-2 minutes.
After the powder is fully dissolved, you may drink some water.
Record observations in a Visual Analogue Scale (VAS) describing the difficulty to fall asleep.

Regarding `NC(=O)C[S+]([O-])C(c1ccccc1)c1ccccc1` (racemic) [racemic modafinil, 2-[(diphenylmethyl)sulfinyl]acetamide], in the data set with extracellular dopamine, the “effect on extracellular dopamine” value was “increases extracellular dopamine”. Further, the “time to reach maximum plasma concentrations” value in data set [1] (after a single oral dose) is 2 to 4 h. Also, in data set [1], the “half-life (T1/2) in the human body” value is recorded as “about 15 hours”. In addition, the “fraction of modafinil eliminated by the liver” value in data set [1] (ingestion of PROVIGIL tablets, humans) is given as at most 90%. At dopamine reuptake pump, the “effect on reuptake of dopamine” value is “inhibit the reuptake of dopamine”. Also, the “effect on wakefulness (subject's report)” value in the data set on normal human volunteer (200 mg Provigil at 10 p.m., same subject about one week before, not blinded) is recorded as “very pronounced effect”.
Regarding `NC(=O)C[S@+]([O-])C(c1ccccc1)c1ccccc1` [d-modafinil, (d)-(+)-modafinil], the “amount in the circulation compared with l-modafinil” value in data set [1] (after use of racemic modafinil) is “three times less”. In the data set with mice, the “pharmacological activity compared with the modafinil racemic compound” value is given as “same pharmacological activity”. Further, the “subject's reported observations on sleep and alertness” value in the data set on normal human volunteers is recorded as “took longer than usual to fall asleep; also recorded: significantly more alert”. The “Visual Analog Scale (0 to 3), difficulty to fall asleep” value in the data set on normal human volunteers (Subject 1, Subject 2) was 1 and 2. In addition, the “effect on wakefulness (subject's blinded report)” value in the data set with normal human volunteer (100 mg sublingual at 11:15 p.m., one subject) is given as “active”. In addition, the “wakefulness effect compared with 200 mg racemic modafinil” value with normal human volunteer (100 mg sublingual, same subject) is recorded as “neither test substance kept them awake as strongly or as long as the 200 mg racemic modafinil”.
For the compound `NC(=O)C[S@@+]([O-])C(c1ccccc1)c1ccccc1` [l-modafinil], the entries for the “half-life (T1/2) in the human body” value in data set [1] and in data set [1] (listed as 1-modafinil) were 10 to 14 h and 13 to 16 h, respectively. Also, in the data set with mice, the “pharmacological activity compared with the modafinil racemic compound” value is “same pharmacological activity”.
